For 23 molecules, IC50 and activity results are on record in patent publication US9505765B2, “4-alkoxy/aralkoxy-5-substituted-pyrrolopyrimidine compounds as TAK1 inhibitors in disease treatment” (Confluence Life Sciences Inc., priority 2012, dated 2016).

Experiment [1] deals with A549 cells. Put plainly: IL-1β stimulated IL-6 Production in A549 cells. The experiment is classed as cell-based. The settings on record: Homo sapiens, 1 ng/ml rhIL1β, 18 hrs; for IC50: read-out: IL-6 Production IC; for activity at 5 µM: 5 μM compound, read-out: IL-6 Production % Control 5 μM; for activity at 50 µM: 50 μM compound, read-out: IL-6 Production % Control 50 μM. The protocol: IL-1β stimulated IL-6 Production in A549 cells: The cellular efficacy of compound candidates is determined using the human lung epithelial cell line A549 (ATCC #CCL-185), based upon the methods of Wheeler et al. (2004) J. Nutrition 134, 1039-1044, and Eda et al. (2011) Cell Biol. Int. 35, 355-358. A549 cells produce a number of cytokines (IL6, IL8 and TNFα) in response to stimulation with IL1β. To induce the production of inflammatory mediators, A549 cells are plated at a final concentration of 3×10^5 cells/well of a 96 well flat bottom plate in F12-K medium supplemented with 10% fetal bovine serum, 100 units/ml penicillin and 100 μg/ml streptomycin (Gibco BRL Life Technologies). Cells are treated with or without inhibitors for 3 hrs then stimulated with 1 ng/ml rhIL1β (R & D Systems) for an additional 18 hrs at 37° C. with 5% CO2. The supernatants are removed and stored at −20° C. until they are to be assayed. The levels of inflammatory mediators are determined using commercial MSD cytokine kits (Meso Scale Discovery) as per the manufacturer's instructions. Standard curves are based on 7 steps of 4× serial dilutions, with a wide dynamic range of 10000 pg/ml to 2.4 pg/ml, and the blank in triplicate. Lower limit of detection (LLOD) is calculated at the commonly used 3× the standard deviation of the blank.
Compounds were tested in accordance with the above described assay, yielding the values described below: […]

In experiment [2] the target is TAK1-TAB1 (Homo sapiens (Human), UniProt O43318). Put plainly: TAK1-TAB1 competitive binding assay (LanthaScreen), without pre-incubation. The settings on record: 10 nM TAK1-TAB1, 100 nM kinase tracer-236, read-out: TAK1-TAB1 Inhibition IC50. The source says:
TAK1-TAB1 Binding Inhibitory Potency: The ability of candidate compounds to interact with TAK1-TAB1 is quantitated by a competitive binding assay using the LanthaScreen technology developed by Life Technologies. This assay is based on the binding of a proprietary, Alexa Fluor® 647-labeled, ATP-competitive kinase inhibitor (kinase tracer-236) to the TAK1-TAB1 construct in presence of a europium-conjugated antibody, resulting in a FRET (fluorescence resonance energy transfer) signal. Displacement of the kinase tracer by compound results in a lower emission ratio upon excitation of the europium chelate. Candidate compounds are designed as potential irreversible inhibitors of TAK1-TAB1, capable of ligating to an active site cysteine residue. The time dependent nature of irreversible inhibition is investigated by performing the binding assay with and without a pre-incubation of compound and TAK1-TAB1.
The inhibitory potency of candidate compounds is measured in 20 mM HEPES pH 7.5, 10 mM MgCl2, 0.01% BSA, 0.0005% Tween-20, and 2% DMSO in the presence of 10 nM TAK1-TAB1, 2 nM Eu-anti-his antibody, and 100 nM kinase tracer-236 using a 384-well plate format. Background signal is defined in the absence of TAK1-TAB1 and uninhibited signal is defined in the presence of vehicle (2% DMSO) alone. Compounds were evaluated in an 11 point dose-response ranging from 20 μM to 0.34 nM. The binding assays are performed under two conditions to evaluate time dependence of inhibition. For the pre-incubation assay, TAK1-TAB1 and Eu-anti-his antibody are preincubated with compound or vehicle for two hours prior to the addition of kinase tracer. The non-preincubated assay is run in which TAK1-TAB1 and Eu-anti-his antibody are added to a mixture of compound and kinase tracer. IC50 values of compounds are determined using a 4 parameter logistical fit of emission ratio as a function of the concentration of compound.
Compounds were tested in accordance with the above described assay, without pre-incubation, yielding the values described below: […]
(TR-FRET usually uses a lanthanide donor and a delayed reading to cut background.)

Sequence of TAK1-TAB1 (O43318 other isoform, or with tags, fused parts or gaps): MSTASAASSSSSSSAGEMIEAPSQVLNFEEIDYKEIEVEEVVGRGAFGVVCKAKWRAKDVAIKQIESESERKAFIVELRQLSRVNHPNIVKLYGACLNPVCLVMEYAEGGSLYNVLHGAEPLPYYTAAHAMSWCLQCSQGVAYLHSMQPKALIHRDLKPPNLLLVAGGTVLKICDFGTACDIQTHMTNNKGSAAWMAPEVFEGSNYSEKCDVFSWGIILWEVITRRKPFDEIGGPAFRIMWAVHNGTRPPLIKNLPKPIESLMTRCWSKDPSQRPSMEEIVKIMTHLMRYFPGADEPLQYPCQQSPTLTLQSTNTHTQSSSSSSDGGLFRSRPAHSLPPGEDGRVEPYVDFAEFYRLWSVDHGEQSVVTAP

Take `COC(=O)/C(C)=C/c1c[nH]c2ncnc(OCC(C)C)c12` [Example 177, (E)-methyl 3-(4-isobutoxy-7H-pyrrolo[2,3-d]pyrimidin-5-yl)-2-methylacrylate]: in experiment [1], the IC50 amounted to 620 nM, the activity at 5 µM was found to be 0% and the activity at 50 µM came out at 0%.
In the case of `CCCOc1ncnc2[nH]cc(/C=C/C(N)=O)c12` [Example 189, (E)-3-(4-propoxy-7H-pyrrolo[2,3-d]pyrimidin-5-yl)acrylamide], in experiment [1], the IC50 came to 180 nM, the activity at 5 µM came to 0% and the activity at 50 µM is 0%. Further, the IC50 in experiment [2] came out at 19 nM.
Consider `CCNC(=O)/C=C/c1c[nH]c2ncnc(OCC(C)C)c12` [Example 179, (E)-N-ethyl-3-(4-isobutoxy-7H-pyrrolo[2,3-d]pyrimidin-5-yl)acrylamide], for which, in experiment [1], the IC50 was found to be 87 nM, the activity at 5 µM was determined as 0% and the activity at 50 µM is 0%. Further, in experiment [2], the IC50 is 340 nM.
On to `CC(C)COc1ncnc2[nH]cc(C=C(F)C(N)=O)c12` (stereo in doubt) [Example 200, (E) 2-fluoro-3-(4-isobutoxy-7H-pyrrolo[2,3-d]pyrimidin-5-yl)-acrylamide], for which, in experiment [1], the activity at 5 µM turned out to be 61% and the activity at 50 µM is 14%. The IC50 in experiment [2] was 860 nM.
As for `CC(C)COc1ncnc2[nH]cc(C/C=C/C(N)=O)c12` [Example 198, 4-(4-isobutoxy-7H-pyrrolo[2,3-d]pyrimidin-5-yl)-but-2-enoic acid amide], in experiment [1], the IC50 stood at 8400 nM, the activity at 5 µM was determined as 4% and the activity at 50 µM is 0%. Further, the IC50 in experiment [2] was 420 nM.
`CC(=O)/C=C/c1c[nH]c2ncnc(OCC(C)C)c12` [Example 37, (E)-4-(4-isobutoxy-7H-pyrrolo[2,3-d]pyrimidin-5-yl)but-3-en-2-one]: in experiment [2], the IC50 turned out to be 100 nM.
As for `NC(=O)/C=C/c1c[nH]c2ncnc(OCC(F)(F)F)c12` [Example 191, (E)-3-(4-(2,2,2-trifluoroethoxy)-7H-pyrrolo[2,3-d]pyrimidin-5-yl)acrylamide], in experiment [1], the IC50 worked out at 150 nM, the activity at 5 µM was determined as 0% and the activity at 50 µM was determined as 0%. In experiment [2], the IC50 was found to be 33 nM.
`N#C/C=C/c1c[nH]c2ncnc(OCc3ccccc3)c12` [Example 93, (E)-3-(4-benzyloxy-7H-pyrrolo[2,3-d]pyrimidin-5-yl)-acrylonitrile]: in experiment [1], the IC50 is 2200 nM, the activity at 5 µM was 21% and the activity at 50 µM was 15%.
For the molecule `CCC(=O)/C=C/c1c[nH]c2ncnc(OCC(C)C)c12` [Example 175, (E)-1-(4-isobutoxy-7H-pyrrolo[2,3-d]pyrimidin-5-yl)pent-1-en-3-one], in experiment [1], the IC50 worked out at 990 nM, the activity at 5 µM is 3% and the activity at 50 µM came out at 0%. Also, in experiment [2], the IC50 is 200 nM.
Take `COC(=O)/C=C/c1c[nH]c2ncnc(OCC(C)C)c12` [Example 176, (E)-methyl 3-(4-isobutoxy-7H-pyrrolo[2,3-d]pyrimidin-5-yl)acrylate]: in experiment [1], the activity at 5 µM worked out at 1% and the activity at 50 µM worked out at 0%. The IC50 in experiment [2] turned out to be 200 nM.
`CC(C)COc1ncnc2[nH]cc(/C=C/C(=O)NC3CC3)c12` [Example 181, (E)-N-cyclopropyl-3-(4-isobutoxy-7H-pyrrolo[2,3-d]pyrimidin-5-yl)acrylamide]: in experiment [1], the IC50 was determined as 180 nM, the activity at 5 µM was 1% and the activity at 50 µM was 0%. Moreover, the IC50 in experiment [2] was 180 nM.
`CC(C)(C)Oc1ncnc2[nH]cc(/C=C/C(N)=O)c12` [Example 195, (E)-3-(4-(tert-butoxy)-7H-pyrrolo[2,3-d]pyrimidin-5-yl)acrylamide]: in experiment [1], the IC50 is 920 nM, the activity at 5 µM is 19% and the activity at 50 µM was found to be 1%. In experiment [2], the IC50 worked out at 13 nM.
For `CC(C)Oc1ncnc2[nH]cc(/C=C/C(N)=O)c12` [Example 188, (E)-3-(4-isopropoxy-7H-pyrrolo[2,3-d]pyrimidin-5-yl)acrylamide], in experiment [1], the IC50 is 170 nM, the activity at 5 µM is 0% and the activity at 50 µM was 0%. For the same molecule, the IC50 in experiment [2] worked out at 4.4 nM.
Turning to `CC(C)COc1ncnc2[nH]cc(/C=C/C(=O)NCC3CC3)c12` [Example 180, (E)-N-(cyclopropylmethyl)-3-(4-isobutoxy-7H-pyrrolo[2,3-d]pyrimidin-5-yl)acrylamide], in experiment [1], the IC50 stood at 630 nM, the activity at 5 µM came out at 2% and the activity at 50 µM stood at 0%. For the same molecule, in experiment [2], the IC50 came to 380 nM.
With `CC(C)COc1ncnc2[nH]cc(/C=C\C#N)c12` [Example 36, (Z)-3-(4-isobutoxy-7H-pyrrolo[2,3-d]pyrimidin-5-yl)acrylonitrile], the IC50 in experiment [2] came out at 170 nM.
`NC(=O)/C=C/c1c[nH]c2ncnc(OCc3cccc(F)c3)c12` [Example 194, (E)-3-(4-((3-fluorobenzyl)oxy)-7H-pyrrolo[2,3-d]pyrimidin-5-yl)acrylamide]: in experiment [1], the IC50 is 43 nM, the activity at 5 µM turned out to be 1% and the activity at 50 µM was found to be 1%.
As to `CC(C)COc1ncnc2[nH]cc(C(=O)CCl)c12` [Example 23, 2-chloro-1-(4-isobutoxy-7H-pyrrolo[2,3-d]pyrimidin-5-yl)ethanone], in experiment [1], the IC50 was 12000 nM, the activity at 5 µM was 117% and the activity at 50 µM came out at 0%. Moreover, in experiment [2], the IC50 was 280 nM.
On to `NC(=O)/C=C/c1c[nH]c2ncnc(OC3CCC(F)(F)CC3)c12` [Example 199, 3-[4-(4,4-difluoro-cyclohexyloxy)-7H-pyrrolo[2,3-c]pyrimidin-5-yl]-acrylamide], for which, in experiment [1], the IC50 was found to be 180 nM, the activity at 5 µM turned out to be 0% and the activity at 50 µM stood at 0%. Moreover, the IC50 in experiment [2] is 16 nM.
As for `CC(C)COc1ncnc2[nH]cc(/C=C/C(=O)N(C)C)c12` [Example 184, (E)-3-(4-isobutoxy-7H-pyrrolo[2,3-d]pyrimidin-5-yl)-N,N-dimethylacrylamide], in experiment [1], the IC50 is 190 nM, the activity at 5 µM was 1% and the activity at 50 µM came to 0%. In experiment [2], the IC50 was 97 nM.
Taken in the same sequence, the figures for `CC(C)COc1ncnc2[nH]cc(/C=C/C(=O)NC[C@@H](C)O)c12` [Example 183, (R,E)-N-(2-hydroxypropyl)-3-(4-isobutoxy-7H-pyrrolo[2,3-d]pyrimidin-5-yl)acrylamide] were 12000 nM, 78%, 1% and 2500 nM.
Consider `C=C(C#N)c1c[nH]c2ncnc(OCC(C)C)c12` [Example 197, 2-(4-isobutoxy-7H-pyrrolo[2,3-d]pyrimidin-5-yl)acrylonitrile], for which, in experiment [1], the activity at 5 µM was 128% and the activity at 50 µM amounted to 75%. The IC50 in experiment [2] is 750 nM.
Regarding `CC(C)COc1ncnc2[nH]cc(C#CC(N)=O)c12` [Example 186, 3-(4-isobutoxy-7H-pyrrolo[2,3-d]pyrimidin-5-yl)propiolamide], in experiment [1], the IC50 turned out to be 850 nM, the activity at 5 µM was determined as 1% and the activity at 50 µM stood at 0%.
For the molecule `CC(C)COc1ncnc2[nH]cc(/C=C/C#N)c12` [Example 35, (E)-3-(4-isobutoxy-7H-pyrrolo[2,3-d]pyrimidin-5-yl)acrylonitrile], the IC50 in experiment [2] was 210 nM.
